We go through 39 compounds from ChEMBL document CHEMBL4715866, “A Chemical Probe for Dark Kinase STK17B Derives Its Potency and High Selectivity through a Unique P-Loop Conformation” (J Med Chem, 2020).

The structures appear in SMILES notation. ≈ marks a conversion by molar mass, not a printed value.

In general, IC50 refers to the concentration at which inhibition is half-maximal. Lower therefore signals greater potency in that assay. What is called Kd is a measure of binding affinity in units of concentration. Read a high Kd as a looser complex.

For the first data set, the target named is T1, Serine/threonine-protein kinase 17B (Homo sapiens, UniProt O94768).
T1 sequence (O94768 whole entry): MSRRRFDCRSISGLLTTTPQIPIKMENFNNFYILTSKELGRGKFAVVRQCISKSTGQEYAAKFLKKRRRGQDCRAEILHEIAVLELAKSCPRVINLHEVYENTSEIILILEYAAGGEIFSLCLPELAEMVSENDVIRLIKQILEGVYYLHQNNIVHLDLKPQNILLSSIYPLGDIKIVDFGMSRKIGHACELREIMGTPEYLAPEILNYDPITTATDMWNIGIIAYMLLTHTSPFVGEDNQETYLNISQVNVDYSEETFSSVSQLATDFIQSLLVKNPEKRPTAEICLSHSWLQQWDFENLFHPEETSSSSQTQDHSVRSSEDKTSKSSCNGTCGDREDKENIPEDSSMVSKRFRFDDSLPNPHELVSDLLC
Conditions: not given
`O=C(O)COc1ncnc2cc(-c3ccc(Cl)cc3)sc12` registered an IC50 greater than 10000 nM.
Same read-out and setting: next, `O=C(O)CSc1ncnc2cc(-c3ccc(Cl)cc3)sc12`: 680 nM; `N#Cc1ccc(-c2cc3ncnc(SCC(=O)O)c3s2)cc1`: 3200 nM; `CSc1ccc(-c2cc3ncnc(SCC(=O)O)c3s2)cc1`: 210 nM.
Same read-out and setting: the value for `CC(=O)Nc1ccc(-c2cc3ncnc(SCC(=O)O)c3s2)cc1` was greater than 10000 nM; that for `O=C(O)CSc1ncnc2cc(-c3ccc(C4CC4)cc3)sc12` was 530 nM; that for `CC(=O)c1ccc(-c2cc3ncnc(SCC(=O)O)c3s2)cn1` was greater than 10000 nM.
Still for that read-out and setting: the value for `CC(C)Sc1ccc(-c2cc3ncnc(SCC(=O)O)c3s2)cc1` was greater than 10000 nM.
The compound `O=C(O)CSc1ncnc2cc(-c3cccc(F)c3)sc12` returned an IC50 of 980 nM.
Still for that read-out and setting: the value for `CCOC(=O)CNc1ncnc2cc(-c3ccc(SC)cc3)sc12` was greater than 10000 nM; that for `CC(=O)Nc1cccc(-c2cc3ncnc(SCC(=O)O)c3s2)c1` was greater than 10000 nM.
With `CC(C)c1ccc(-c2cc3ncnc(SCC(=O)O)c3s2)cc1`, the IC50 came out at 550 nM.
Same read-out and setting: the value for `O=C(O)CSc1ncnc2cc(-c3ccc(F)c(F)c3)sc12` was 820 nM.
Still for that read-out and setting: next, `COc1ccccc1-c1cc2ncnc(SCC(=O)O)c2s1`: 1700 nM.
Same read-out and setting: next, `COc1cccc(-c2cc3c(SCC(=O)O)ncnc3s2)c1`: greater than 10000 nM; `CCc1ccc(-c2cc3ncnc(SCC(=O)O)c3s2)cc1`: 380 nM.
In the case of `O=C(O)CSc1ncnc2cc(-c3ccc(N4CCOCC4)cc3)sc12`, the IC50 turned out to be 720 nM.
The same measure, in the same setting: the value for `CSc1ccc(-c2cc3c(SCC(=O)O)ncnc3s2)cc1` was greater than 10000 nM; that for `CSc1ccc(-c2cc3ncnc(SCC(=O)O)c3s2)cc1F` was 530 nM; that for `O=C(O)CSc1ncnc2cc(-c3ccc(Cl)c(Cl)c3)sc12` was 310 nM.
The same measure, in the same setting: next, `COc1ccc(-c2cc3c(SCC(=O)O)ncnc3s2)cc1`: greater than 10000 nM.
Same read-out and setting: next, `O=C(O)CSc1ncnc2sc(-c3ccc(Cl)c(Cl)c3)cc12`: greater than 10000 nM.
On to `CC(=O)c1ccc(-c2cc3ncnc(SCC(=O)O)c3s2)cc1`, for which the IC50 stood at 1500 nM.
Turning to `CCOC(=O)COc1ncnc2cc(-c3ccc(Cl)cc3)sc12`, the IC50 was greater than 10000 nM.
Same read-out and setting: the value for `COc1ccc(-c2cc3ncnc(SCC(=O)O)c3s2)cc1F` was 700 nM; that for `CSc1ccc(-c2cc3ncnc(NCC(=O)O)c3s2)cc1` was greater than 10000 nM.
Same read-out and setting: the value for `O=C(O)CSc1ncnc2cc(-c3cccc(N4CCOCC4)c3)sc12` was 2900 nM; that for `CSc1ccc(-c2cc3ncnc(SCC(N)=O)c3s2)cc1` was greater than 10000 nM; that for `CCOC(=O)c1ccc(-c2cc3ncnc(SCC(=O)O)c3s2)cc1` was 870 nM.
Same read-out and setting: next, `O=C(O)CSc1ncnc2cc(-c3ccc(C(F)(F)F)cc3)sc12`: 340 nM; `O=C(O)CSc1ncnc2cc(-c3cccc(OC(F)(F)F)c3)sc12`: 500 nM.
For `O=C(O)CSc1ncnc2cc(-c3ccccc3F)sc12`, inhibition was half-maximal at 1200 nM (IC50).
Still for that read-out and setting: next, `CSc1cccc(-c2cc3ncnc(SCC(=O)O)c3s2)c1`: 500 nM; `O=C(O)CSc1ncnc2cc(-c3cccs3)sc12`: 650 nM.
The same measure, in the same setting: the value for `COc1ccccc1-c1cc2c(SCC(=O)O)ncnc2s1` was greater than 10000 nM.
`O=C(O)CSc1ncnc2cc(-c3ccc(OCc4ccccc4)cc3)sc12` had an IC50 greater than 10000 nM.
On the same count and under the same terms, next, `C=Cc1ccc(-c2cc3ncnc(SCC(=O)O)c3s2)cc1`: 120 nM; `C[S+]([O-])c1ccc(-c2cc3ncnc(SCC(=O)O)c3s2)cc1` (configuration not stated): greater than 10000 nM.
Same read-out and setting: the value for `CSc1cccc(-c2cc3c(SCC(=O)O)ncnc3s2)c1` was greater than 10000 nM.

The next data set deals with T2, Serine/threonine-protein kinase 17A (Homo sapiens, UniProt Q9UEE5).
T2 sequence (Q9UEE5 whole entry): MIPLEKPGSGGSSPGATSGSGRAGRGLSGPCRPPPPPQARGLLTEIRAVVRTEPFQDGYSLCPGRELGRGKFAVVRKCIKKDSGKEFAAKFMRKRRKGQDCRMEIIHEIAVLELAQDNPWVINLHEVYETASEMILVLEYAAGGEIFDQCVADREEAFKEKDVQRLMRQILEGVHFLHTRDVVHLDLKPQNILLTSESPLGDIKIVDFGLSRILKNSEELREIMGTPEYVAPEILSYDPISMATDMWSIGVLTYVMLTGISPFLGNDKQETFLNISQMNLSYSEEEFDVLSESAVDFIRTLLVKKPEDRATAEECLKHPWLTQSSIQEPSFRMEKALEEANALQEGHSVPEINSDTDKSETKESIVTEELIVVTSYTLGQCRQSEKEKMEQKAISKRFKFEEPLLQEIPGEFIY
The data set is described as follows: Binding affinity to STK17A (unknown origin) by KINOMEscan scanMAX assay.
Conditions: not given
As to `CSc1ccc(-c2cc3ncnc(SCC(=O)O)c3s2)cc1`, the Kd was 230 nM.

The target in a further data set is T1, Serine/threonine-protein kinase 17B. The data set is described as follows: Inhibition of N-terminal His-tagged STK17B kinase domain (25 to 329 residues) (unknown origin) expressed in Escherichia coli incubated for 90 mins by Kinase seeker split luciferase assay.
Conditions: not given
`O=C(O)CSc1ncnc2cc(-c3ccc(Cl)cc3)sc12` came in with an IC50 of 39 nM. In other words, the double-digit nanomolar range.
On the same count and under the same terms, the value for `N#Cc1ccc(-c2cc3ncnc(SCC(=O)O)c3s2)cc1` was 35 nM; that for `CSc1ccc(-c2cc3ncnc(SCC(=O)O)c3s2)cc1` was 20 nM; that for `CC(=O)Nc1ccc(-c2cc3ncnc(SCC(=O)O)c3s2)cc1` was 23 nM.
Still for that read-out and setting: the value for `O=C(O)CSc1ncnc2cc(-c3ccc(C4CC4)cc3)sc12` was 62 nM.
Same read-out and setting: next, `CC(=O)c1ccc(-c2cc3ncnc(SCC(=O)O)c3s2)cn1`: 37 nM; `CC(C)Sc1ccc(-c2cc3ncnc(SCC(=O)O)c3s2)cc1`: 49 nM; `O=C(O)CSc1ncnc2cc(-c3cccc(F)c3)sc12`: 49 nM.
Turning to `CC(=O)Nc1cccc(-c2cc3ncnc(SCC(=O)O)c3s2)c1`, half-maximal inhibition (IC50) was put at 35 nM.
Compound `CC(C)c1ccc(-c2cc3ncnc(SCC(=O)O)c3s2)cc1` registered an IC50 of 59 nM.
Same read-out and setting: the value for `O=C(O)CSc1ncnc2cc(-c3ccc(F)c(F)c3)sc12` was 74 nM; that for `COc1ccccc1-c1cc2ncnc(SCC(=O)O)c2s1` was 110 nM; that for `CCc1ccc(-c2cc3ncnc(SCC(=O)O)c3s2)cc1` was 41 nM.
Same read-out and setting: the value for `O=C(O)CSc1ncnc2cc(-c3ccc(N4CCOCC4)cc3)sc12` was 14 nM.
On to `CSc1ccc(-c2cc3ncnc(SCC(=O)O)c3s2)cc1F`, for which half-maximal inhibition (IC50) required 27 nM.
Still for that read-out and setting: next, `O=C(O)CSc1ncnc2cc(-c3ccc(Cl)c(Cl)c3)sc12`: 92 nM; `CC(=O)c1ccc(-c2cc3ncnc(SCC(=O)O)c3s2)cc1`: 13 nM.
On the same count and under the same terms, next, `COc1ccc(-c2cc3ncnc(SCC(=O)O)c3s2)cc1F`: 18 nM; `O=C(O)CSc1ncnc2cc(-c3cccc(N4CCOCC4)c3)sc12`: 83 nM.
Regarding `CCOC(=O)c1ccc(-c2cc3ncnc(SCC(=O)O)c3s2)cc1`, the IC50 came out at 40 nM. This IC50 lies about 2.1-fold lower than the previous one.
As to `O=C(O)CSc1ncnc2cc(-c3ccc(C(F)(F)F)cc3)sc12`, half-maximal inhibition (IC50) was put at 33 nM.
Same read-out and setting: the value for `O=C(O)CSc1ncnc2cc(-c3cccc(OC(F)(F)F)c3)sc12` was 280 nM.
`O=C(O)CSc1ncnc2cc(-c3ccccc3F)sc12` came in with an IC50 of 60 nM.
In turn, `CSc1cccc(-c2cc3ncnc(SCC(=O)O)c3s2)c1` came in with an IC50 of 49 nM. The IC50 values of the last two compounds are within 1.5-fold of each other.
Still for that read-out and setting: the value for `O=C(O)CSc1ncnc2cc(-c3cccs3)sc12` was 63 nM; that for `COc1ccccc1-c1cc2c(SCC(=O)O)ncnc2s1` was 880 nM; that for `O=C(O)CSc1ncnc2cc(-c3ccc(OCc4ccccc4)cc3)sc12` was 110 nM.
Still for that read-out and setting: the value for `C=Cc1ccc(-c2cc3ncnc(SCC(=O)O)c3s2)cc1` was 28 nM.
Still for that read-out and setting: the value for `C[S+]([O-])c1ccc(-c2cc3ncnc(SCC(=O)O)c3s2)cc1` (configuration not stated) was 7 nM.

Tested on in another data set: not listed separately
The data set is described as follows: Stability in mouse liver microsomes assessed as compound remaining at 0.1 mM in presence of NADPH regeneration system after 30 mins by LC-MS/MS analysis. It counts as ADME, Microsome. The note with it: read-out: Stabilty. In general terms: Liver microsomes are vesicles of endoplasmic reticulum, rich in cytochrome P450 enzymes.
Regarding `CSc1ccc(-c2cc3ncnc(SCC(=O)O)c3s2)cc1`, the remaining at 0.5 h, 100 µM amounted to 0%.
In the case of `O=C(O)CSc1ncnc2cc(-c3ccc(C4CC4)cc3)sc12`, the remaining at 0.5 h, 100 µM stood at 66%.
Consider `CC(C)c1ccc(-c2cc3ncnc(SCC(=O)O)c3s2)cc1`, for which the remaining at 0.5 h, 100 µM amounted to 35%.
For `O=C(O)CSc1ncnc2cc(-c3ccc(F)c(F)c3)sc12`, the remaining at 0.5 h, 100 µM is 95%.
Still for that read-out and setting: next, `COc1ccccc1-c1cc2ncnc(SCC(=O)O)c2s1`: 24%; `O=C(O)CSc1ncnc2cc(-c3ccc(N4CCOCC4)cc3)sc12`: 63%; `CSc1ccc(-c2cc3ncnc(SCC(=O)O)c3s2)cc1F`: 18%.
The same measure, in the same setting: the value for `COc1ccc(-c2cc3ncnc(SCC(=O)O)c3s2)cc1F` was 88%; that for `O=C(O)CSc1ncnc2cc(-c3cccc(N4CCOCC4)c3)sc12` was 73%.
Same read-out and setting: next, `CCOC(=O)c1ccc(-c2cc3ncnc(SCC(=O)O)c3s2)cc1`: 0%.
For `O=C(O)CSc1ncnc2cc(-c3ccc(C(F)(F)F)cc3)sc12`, the remaining at 0.5 h, 100 µM came to 88%.
On the same count and under the same terms, the value for `O=C(O)CSc1ncnc2cc(-c3ccccc3F)sc12` was 45%; that for `O=C(O)CSc1ncnc2cc(-c3cccs3)sc12` was 47%.
On the same count and under the same terms, the value for `C=Cc1ccc(-c2cc3ncnc(SCC(=O)O)c3s2)cc1` was 38%.

Tested on in the next data set: not listed separately
The data set is described as follows: Kinetic solubility in pH 7.4 PBS. The data set is classed as physicochemical. The settings on record: read-out: Kinetic_solubility.
As to `CSc1ccc(-c2cc3ncnc(SCC(=O)O)c3s2)cc1`, the solubility kinetic came out at 42 µg/mL (≈ 121 µM).
`O=C(O)CSc1ncnc2cc(-c3ccc(C4CC4)cc3)sc12`: the solubility kinetic stood at 55 µg/mL (≈ 161 µM).
Still for that read-out and setting: next, `CC(C)c1ccc(-c2cc3ncnc(SCC(=O)O)c3s2)cc1`: 23 µg/mL (≈ 66.8 µM); `O=C(O)CSc1ncnc2cc(-c3ccc(F)c(F)c3)sc12`: 65 µg/mL (≈ 192 µM); `COc1ccccc1-c1cc2ncnc(SCC(=O)O)c2s1`: 69 µg/mL (≈ 208 µM).
Turning to `O=C(O)CSc1ncnc2cc(-c3ccc(N4CCOCC4)cc3)sc12`, the solubility kinetic amounted to 61 µg/mL (≈ 157 µM).
On the same count and under the same terms, the value for `CSc1ccc(-c2cc3ncnc(SCC(=O)O)c3s2)cc1F` was 52 µg/mL (≈ 142 µM); that for `COc1ccc(-c2cc3ncnc(SCC(=O)O)c3s2)cc1F` was 49 µg/mL (≈ 140 µM); that for `O=C(O)CSc1ncnc2cc(-c3cccc(N4CCOCC4)c3)sc12` was 54 µg/mL (≈ 139 µM).
Turning to `CCOC(=O)c1ccc(-c2cc3ncnc(SCC(=O)O)c3s2)cc1`, the solubility kinetic was determined as 59 µg/mL (≈ 158 µM).
As for `O=C(O)CSc1ncnc2cc(-c3ccc(C(F)(F)F)cc3)sc12`, the solubility kinetic turned out to be 57 µg/mL (≈ 154 µM).
In the case of `O=C(O)CSc1ncnc2cc(-c3ccccc3F)sc12`, the solubility kinetic amounted to 51 µg/mL (≈ 159 µM).
With `O=C(O)CSc1ncnc2cc(-c3cccs3)sc12`, the solubility kinetic came out at 56 µg/mL (≈ 182 µM).
The same measure, in the same setting: the value for `C=Cc1ccc(-c2cc3ncnc(SCC(=O)O)c3s2)cc1` was 74 µg/mL (≈ 225 µM).
